{"source": "patent US8598114B2", "about": "“Antimicrobial compounds” (priority 2007, dated 2013)", "key": {"Clostridium difficile": {"system": "Clostridium difficile", "test": "MIC, CLSI microbroth dilution (anaerobic bacteria)", "assay_type": "cell-based", "conditions": "Clostridium difficile - antibiotic-susceptible clinical isolate", "description": "M11-A6 Vol. 24 No. 2 Methods for Antimicrobial Susceptibility Testing of Anaerobic Bacteria; Approved Standard-Sixth Edition.\nSupplemented Brucella broth (SBB) was used for the anaerobic strains with an inoculum of approximately 10^6 CFU/mL. SBB is a broth consisting of 1% peptone, 0.5% ‘Lab-lemco’, 1% glucose and 0.5% sodium chloride supplemented with 5 […] vitamin K (both obtained from Sigma Aldrich Ltd.)"}, "Haemophilus influenzae": {"system": "Haemophilus influenzae", "test": "MIC, CLSI microbroth dilution (Haemophilus test medium)"}, "Eggerthella lenta": {"system": "Eggerthella lenta", "test": "MIC, CLSI microbroth dilution (anaerobic bacteria)", "assay_type": "cell-based", "parameters": "unit not given here", "conditions": "Eggerthella lenta - ATCC 43055, SBB (Table 2)"}, "Escherichia coli": {"system": "Escherichia coli", "test": "MIC, CLSI microbroth dilution (aerobic bacteria)", "assay_type": "cell-based", "parameters": "unit not given beside the values", "description": "(§1) Cation-adjusted Mueller-Hinton broth (Oxoid Ltd., Basingstoke, UK and Trek Diagnostic Systems Ltd., East Grinstead, UK) (supplemented with 5% laked horse blood for Streptococcus spp., Corynebacterium jeikeium and Listeria monocytogenes) was used for aerobic bacteria, with an initial inoculum of approximately 10^5 colony-forming units (CFU)/mL.\n(§2) To evaluate whether freezing affected the activity of the peptides some MIC determinations were repeated using plates containing freshly-prepared Mueller-Hinton broth."}, "Enterococcus faecalis": {"system": "Enterococcus faecalis", "test": "MIC, CLSI microbroth dilution (aerobic bacteria)", "assay_type": "cell-based", "parameters": "unit not given beside the values", "description": "as §1, §2"}, "Pseudomonas aeruginosa": {"system": "Pseudomonas aeruginosa", "test": "MIC, CLSI microbroth dilution (aerobic bacteria)", "assay_type": "cell-based", "parameters": "unit not given beside the values", "description": "as §1, §2"}, "Streptococcus sanguis": {"system": "Streptococcus sanguis", "test": "MIC, CLSI microbroth dilution (aerobic bacteria)", "assay_type": "cell-based", "parameters": "unit not given beside the values", "description": "as §1"}, "Group C Streptococcus": {"system": "Group C Streptococcus", "test": "MIC, CLSI microbroth dilution (aerobic bacteria)", "assay_type": "cell-based", "parameters": "unit not given beside the values", "description": "as §1"}, "Streptococcus agalactiae": {"system": "Streptococcus agalactiae", "test": "MIC, CLSI microbroth dilution (aerobic bacteria)", "assay_type": "cell-based", "parameters": "unit not given beside the values", "description": "as §1"}, "Listeria monocytogenes": {"system": "Listeria monocytogenes", "test": "MIC, CLSI microbroth dilution (aerobic bacteria)", "assay_type": "cell-based", "parameters": "unit not given beside the values", "conditions": "Listeria monocytogenes - antibiotic-susceptible clinical isolate", "description": "as §1"}, "[1]": {"system": "Staphylococcus epidermidis", "test": "MIC, CLSI microbroth dilution (aerobic bacteria)", "assay_type": "cell-based", "parameters": "unit not given beside the values", "description": "as §1"}, "Streptococcus pneumoniae": {"system": "Streptococcus pneumoniae", "test": "MIC, CLSI microbroth dilution (aerobic bacteria)", "assay_type": "cell-based", "parameters": "unit not given beside the values", "description": "as §1"}, "Streptococcus bovis": {"system": "Streptococcus bovis", "test": "MIC, CLSI microbroth dilution (aerobic bacteria)", "assay_type": "cell-based", "parameters": "unit not given beside the values", "description": "as §1"}, "[2]": {"system": "Staphylococcus saprophyticus", "test": "MIC, CLSI microbroth dilution (aerobic bacteria)", "assay_type": "cell-based", "parameters": "unit not given beside the values", "conditions": "Staphylococcus saprophyticus - antibiotic susceptible clinical isolate", "description": "as §1"}, "Streptococcus oralis": {"system": "Streptococcus oralis", "test": "MIC, CLSI microbroth dilution (aerobic bacteria)", "assay_type": "cell-based", "parameters": "unit not given beside the values", "description": "as §1"}, "Moraxella catarrhalis": {"system": "Moraxella catarrhalis", "test": "MIC, CLSI microbroth dilution (aerobic bacteria)", "assay_type": "cell-based", "parameters": "unit not given beside the values", "description": "as §1"}, "Shigella sp": {"system": "Shigella sp", "test": "MIC, CLSI microbroth dilution (aerobic bacteria)", "assay_type": "cell-based", "parameters": "unit not given beside the values", "conditions": "Shigella sp - antibiotic-susceptible clinical isolate", "description": "as §1"}, "Streptococcus pyogenes": {"system": "Streptococcus pyogenes", "test": "MIC, CLSI microbroth dilution (aerobic bacteria)", "assay_type": "cell-based", "parameters": "unit not given beside the values", "description": "as §1"}, "Salmonella sp": {"system": "Salmonella sp", "test": "MIC, CLSI microbroth dilution (aerobic bacteria)", "assay_type": "cell-based", "parameters": "unit not given beside the values", "description": "as §1"}, "[3]": {"system": "Streptococcus constellatus", "test": "MIC, CLSI microbroth dilution (aerobic bacteria)", "assay_type": "cell-based", "parameters": "unit not given beside the values", "description": "as §1"}, "Enterobacter sp": {"system": "Enterobacter sp", "test": "MIC, CLSI microbroth dilution (aerobic bacteria)", "assay_type": "cell-based", "parameters": "unit not given beside the values", "description": "as §1"}, "Klebsiella aerogenes": {"system": "Klebsiella aerogenes", "test": "MIC, CLSI microbroth dilution (aerobic bacteria)", "assay_type": "cell-based", "parameters": "unit not given beside the values", "description": "as §1"}, "Morganella morganii": {"system": "Morganella morganii", "test": "MIC, CLSI microbroth dilution (aerobic bacteria)", "assay_type": "cell-based", "parameters": "unit not given beside the values", "conditions": "Morganella morganii - multi-drug resistant clinical isolate", "description": "as §1"}, "Streptococcus mitis": {"system": "Streptococcus mitis", "test": "MIC, CLSI microbroth dilution (aerobic bacteria)", "assay_type": "cell-based", "parameters": "unit not given beside the values", "description": "as §1"}, "Group G Streptococcus": {"system": "Group G Streptococcus", "test": "MIC, CLSI microbroth dilution (aerobic bacteria)", "assay_type": "cell-based", "parameters": "unit not given beside the values", "description": "as §1"}, "[4]": {"system": "Stenotrophomonas maltophilia", "test": "MIC, CLSI microbroth dilution (aerobic bacteria)", "assay_type": "cell-based", "parameters": "unit not given beside the values", "conditions": "Stenotrophomonas maltophilia - antibiotic-susceptible clinical isolate", "description": "as §1"}}, "note": "“And” between values parts separate entries of the source, which are not always exact repeats. Identical values can stand only once.", "data": [{"smiles": "N=C(N)NCCCC(N)C(=O)NC(Cc1ccc(-c2ccc3ccccc3c2)cc1)C(=O)NC(CCCNC(=N)N)C(=O)NCCc1ccccc1", "note": "(centres unmarked) [Compound 1]", "values": [{"measurement": "MIC", "setting": "Clostridium difficile", "result": 32}, {"measurement": "MIC", "setting": "Haemophilus influenzae; Haemophilus influenzae - β-lactamase negative clinical isolate", "result": "≧128"}, {"measurement": "MIC", "setting": "Haemophilus influenzae; Haemophilus influenzae - β-lactamase positive clinical isolate", "result": "≧128"}, {"measurement": "MIC", "setting": "Haemophilus influenzae; Haemophilus influenzae β-lactamase negative ampicillin-resistant", "result": "≧128"}, {"measurement": "MIC", "setting": "Eggerthella lenta", "result": 16}, {"measurement": "MIC", "setting": "Escherichia coli; Escherichia coli - multi-drug resistant clinical isolate", "result": 32}, {"measurement": "MIC", "setting": "Escherichia coli; Escherichia coli ATCC25922 - antibiotic-susceptible type strain", "result": 32}, {"measurement": "MIC", "setting": "Escherichia coli; Escherichia coli ATCC32518 - β-lactamase positive type strain", "result": 32}, {"measurement": "MIC", "setting": "Escherichia coli; GN01 Escherichia coli ATCC 25922 type strain, repeat results (Table 2), Fresh MHB", "result": 16}, {"measurement": "MIC", "setting": "Escherichia coli; GN01 Escherichia coli ATCC 25922 type strain, repeat results (Table 2), Frozen MHB", "result": 32}, {"measurement": "MIC", "setting": "Enterococcus faecalis; Enterococcus faecalis - ATCC 29212 antibiotic-susceptible control (Table 1)", "result": 4}, {"measurement": "MIC", "setting": "Enterococcus faecalis; Enterococcus faecalis high-level gentamicin-resistant clinical isolate", "result": 16}, {"measurement": "MIC", "setting": "Enterococcus faecalis; Enterococcus faecalis vancomycin-resistant (VanA) clinical isolate", "result": 16}, {"measurement": "MIC", "setting": "Enterococcus faecalis; Enterococcus faecalis vancomycin-resistant (VanB) clinical isolate", "result": 16}, {"measurement": "MIC", "setting": "Enterococcus faecalis; Enterococcus faecalis vancomycin-susceptible clinical isolate", "result": 8}, {"measurement": "MIC", "setting": "Enterococcus faecalis; GP11 Enterococcus faecalis - ATCC 29212 control strain, repeat results (Table 2), Fresh MHB", "result": 4}, {"measurement": "MIC", "setting": "Enterococcus faecalis; GP11 Enterococcus faecalis - ATCC 29212 control strain, repeat results (Table 2), Frozen MHB", "result": 8}, {"measurement": "MIC", "setting": "Pseudomonas aeruginosa; GN10 Pseudomonas aeruginosa ATCC 27853 type strain, repeat results (Table 2), Fresh MHB", "result": 8}, {"measurement": "MIC", "setting": "Pseudomonas aeruginosa; GN10 Pseudomonas aeruginosa ATCC 27853 type strain, repeat results (Table 2), Frozen MHB", "result": "16 and 32"}, {"measurement": "MIC", "setting": "Pseudomonas aeruginosa; Pseudomonas aeruginosa - multi-drug resistant clinical isolate", "result": 32}, {"measurement": "MIC", "setting": "Pseudomonas aeruginosa; Pseudomonas aeruginosa ATCC27853 - antibiotic-susceptible type", "result": 16}, {"measurement": "MIC", "setting": "Streptococcus sanguis; Streptococcus sanguis - antibiotic-susceptible clinical isolate", "result": 64}, {"measurement": "MIC", "setting": "Streptococcus sanguis; Streptococcus sanguis - macrolide-resistant clinical isolate", "result": 32}, {"measurement": "MIC", "setting": "Group C Streptococcus; Group C Streptococcus - antibiotic-susceptible clinical isolate", "result": 32}, {"measurement": "MIC", "setting": "Group C Streptococcus; Group C Streptococcus - macrolide-resistant clinical isolate", "result": 64}, {"measurement": "MIC", "setting": "Streptococcus agalactiae; Streptococcus agalactiae - antibiotic-susceptible clinical isolate", "result": 16}, {"measurement": "MIC", "setting": "Streptococcus agalactiae; Streptococcus agalactiae - macrolide-resistant clinical isolate", "result": 32}, {"measurement": "MIC", "setting": "Listeria monocytogenes", "result": 32}, {"measurement": "MIC", "setting": "[1]; Staphylococcus epidermidis antibiotic susceptible clinical isolate", "result": 16}, {"measurement": "MIC", "setting": "[1]; Staphylococcus epidermidis methicillin-resistant clinical isolate", "result": 2}, {"measurement": "MIC", "setting": "Streptococcus pneumoniae; Streptococcus pneumoniae - ATCC 49619 antibiotic-susceptible control", "result": 32}, {"measurement": "MIC", "setting": "Streptococcus pneumoniae; Streptococcus pneumoniae - multi-drug resistant clinical isolate", "result": 64}, {"measurement": "MIC", "setting": "Streptococcus pneumoniae; Streptococcus pneumoniae - penicillin-resistant clinical isolate", "result": 32}, {"measurement": "MIC", "setting": "Streptococcus pneumoniae; Streptococcus pneumoniae - penicillin-susceptible clinical isolate", "result": 64}, {"measurement": "MIC", "setting": "Streptococcus pneumoniae; Streptococcus pneumoniae -penicillin-intermediate clinical isolate", "result": 32}, {"measurement": "MIC", "setting": "Streptococcus bovis; Streptococcus bovis - antibiotic-susceptible clinical isolate", "result": 64}, {"measurement": "MIC", "setting": "Streptococcus bovis; Streptococcus bovis - macrolide-resistant clinical isolate", "result": 8}, {"measurement": "MIC", "setting": "[2]", "result": 1}, {"measurement": "MIC", "setting": "Streptococcus oralis; Streptococcus oralis - antibiotic-susceptible clinical isolate", "result": 64}, {"measurement": "MIC", "setting": "Streptococcus oralis; Streptococcus oralis - macrolide-resistant clinical isolate", "result": 32}, {"measurement": "MIC", "setting": "Moraxella catarrhalis; Moraxella catarrhalis - reduced fluoroquinolone susceptibility clinical", "result": 8}, {"measurement": "MIC", "setting": "Moraxella catarrhalis; Moraxella catarrhalis - β-lactamase positive clinical isolate", "result": 4}, {"measurement": "MIC", "setting": "Shigella sp", "result": 32}, {"measurement": "MIC", "setting": "Streptococcus pyogenes; Streptococcus pyogenes - Macrolide (M-type) resistance clinical isolate", "result": 32}, {"measurement": "MIC", "setting": "Streptococcus pyogenes; Streptococcus pyogenes - Macrolide (MLS) resistant clinical isolate", "result": 32}, {"measurement": "MIC", "setting": "Salmonella sp; Salmonella sp - antibiotic-susceptible clinical isolate", "result": 16}, {"measurement": "MIC", "setting": "Salmonella sp; Salmonella sp - multi-drug resistant clinical isolate", "result": 16}, {"measurement": "MIC", "setting": "[3]; Streptococcus constellatus - antibiotic-susceptible clinical isolate", "result": 64}, {"measurement": "MIC", "setting": "[3]; Streptococcus constellatus - macrolide-resistant clinical isolate", "result": 64}, {"measurement": "MIC", "setting": "Enterobacter sp; Enterobacter sp - antibiotic-susceptible clinical isolate", "result": 32}, {"measurement": "MIC", "setting": "Enterobacter sp; Enterobacter sp - multi-drug resistant clinical isolate", "result": 64}, {"measurement": "MIC", "setting": "Klebsiella aerogenes; Klebsiella aerogenes - multi-drug resistant clinical isolate", "result": 64}, {"measurement": "MIC", "setting": "Klebsiella aerogenes; Klebsiella aerogenes NCTC11228 - antibiotic-susceptible type strain", "result": 32}, {"measurement": "MIC", "setting": "Morganella morganii", "result": "≧128"}, {"measurement": "MIC", "setting": "Streptococcus mitis; Streptococcus mitis - antibiotic-susceptible clinical isolate", "result": 64}, {"measurement": "MIC", "setting": "Streptococcus mitis; Streptococcus mitis - macrolide-resistant clinical isolate", "result": "≧128"}, {"measurement": "MIC", "setting": "Group G Streptococcus; Group G Streptococcus - antibiotic-susceptible clinical isolate", "result": 32}, {"measurement": "MIC", "setting": "Group G Streptococcus; Group G Streptococcus - macrolide-resistant clinical isolate", "result": 32}, {"measurement": "MIC", "setting": "[4]", "result": 64}]}]}
